From patent US10626094B2 (La Jolla Institute of Allergy & Immunology, priority 2014, dated 2020)

Key:
[1] = test system: 3T3-L1 cells; assay: insulin-based mouse 3T3-L1 adipogenesis assay (AdipoRed); type: cell-based; conditions: 10 μM compound
Procedure: The probe Compound D1 was also profiled in an insulin-based mouse 3T3-L1 adipogenesis assay. In this assay, 3T3-L1 pre-adipocytes are grown to 2-days post-confluence in DMEM with 10% bovine calf serum, and then induced to differentiate to adipocytes following stimulation for 2 days with an induction cocktail containing 1 μg/ml insulin, 1 μM dexamethasone, and 0.5 mM 3-isobutyl-1-methylxanthine in DMEM containing 10% fetal bovine serum (FBS).^44 2 days later, the media is replaced with DMEM with 10% FBS and 1 μg/ml insulin, and after 2 additional days, the media is replaced with DMEM with 10% FBS for 2 additional days, at which point adipogenesis is measured using the AdipoRed Adipogenesis Assay Reagent from Lonza, according to the manufacturer's instructions. In brief, the assay reagent is added to the wells containing cells, where it partitions into the fat droplets of differentiated adipocytes, and emits fluorescence at 572 nm that can be detected with a plate-reader. To test the effect of probe Compound D1, cells were plated into 48-well plates and allowed to grow to confluence. Cells were then treated with 10 μM Compound D1 or 0.025% DMSO, and after 2 days induced to differentiate in the presence of 10 μM Compound D1 or 0.025% DMSO. Fresh compound or DMSO was added during each media replacement.

[2] = target: T1, LMPTP (Homo sapiens (Human), UniProt P24666); assay: LMPTP enzyme inhibition assay with pNPP as substrate; type: biochemical; conditions: n = 2; AID 743308; read-out: LMPTP Orthogonal assay IC50
[3] = hepatic microsomal stability, mouse liver microsomes; type: in vitro ADME
Source text: In the course of this investigation many compounds with similar potencies in the LMPTP (OMFP) assay were found. In order to determine which compound would be the best candidate for in vivo studies, an abbreviated ADME panel was ran on these compounds, a tabulation of the most interesting data on this set of compounds is illustrated in Table 3 below. From the hepatic microsome stability data the candidate selected for in vivo studies was Compound D1.
The microsomal stability assay is commonly used to rank compounds according to their metabolic stability. This assay addresses the pharmacologic question of how long the parent compound will remain circulating in plasma within the body.

[4] = rodent pharmacokinetics in male C57BL/6 mice (IV, PO, IP); type: in vivo, mouse
Procedure: The inventors also examined ML400 (also described herein as MLS-0472870 or Compound D1) for its rodent pharmacokinetics. The probe Compound D1 was profiled in Male C57BL/6 Mice, with n=3 for each group studied (IV, IP and PO arms). The formulation used was 1.00 mg/mL in DMSO:Tween80:Water=5:5:90, which gave a clear solution. […] Enterohepatic circulation was also observed for this compound. This compound has acceptable parameters for future in vivo studies (see Table 4 and FIG. 13).

[5] = target: VHR-1 (VH1-related phosphatase, VHR) (Homo sapiens (Human), UniProt P51452); assay: VHR-1 phosphatase selectivity dose response assay; type: biochemical
Source text: (§1) Disclosed herein is a collection of small-molecule inhibitors of the low molecular weight protein tyrosine phosphatase (LMPTP). The assays utilized in the primary and secondary screening were designed to identify allosteric inhibitors of LMPTP. […] The structure of the compounds was further optimized to generate a series of inhibitors of LMPTP-A isoform, with high selectivity over the LMPTP-B isoform, LYP and VHR, and with cellular activity. In an aspect is provided a compound having the formula: […]
(§2) LYP-1 and VHR-1 dose response assays to assess selectivity of Compound D1 against these non-homologous phosphatases.

[6] = test system: obese C57BL/6 mice on HFD; assay: IPGTT glucose tolerance in high-fat diet obese mice; type: in vivo, mouse; conditions: 30 mg/kg IP daily, 4 weeks, 2 g glucose/kg
Procedure: Male C57BL/6 mice were maintained on HFD containing 60 kcal % fat for 3 months, followed by daily IP administration of 30 mg/kg Compound D1 or vehicle. After 4 weeks, IPGTT were performed using 2 g glucose/kg body weight. Mean±SEM is shown. *, p<0.05, Two-way ANOVA.

[7] = plasma stability, mouse plasma; type: in vitro ADME
Source text: Plasma stability is a measure of the stability of small molecules and peptides in plasma and is an important parameter, which can strongly influence the in vivo efficacy of a test compound. Drug candidates are exposed to enzymatic processes (proteinases. esterases) in plasma, and they can undergo intramolecular rearrangement or bind irreversibly (covalently) to proteins.

[8] = aqueous solubility (buffer pH 5.0-7.4, PBS); type: physicochemical; conditions: for solubility: Pion's buffer
[9] = target: T1, LMPTP; assay: mechanism of action: LMPTP activity on OMFP at increasing inhibitor concentrations (Michaelis-Menten); type: biochemical
Procedure: Activity of 20 nM LMPTP on OMFP substrate in the presence of increasing concentrations of ML400. Reactions were conducted at 37° C. in 50 mM Bis-Tris, pH 6.0 with 1 mM DTT and 0.01% Triton X-100. Mean±SD is shown. Lines show fitting of data to the Michaelis-Menten equation. Note decrease in both Vmax and KM with increasing inhibitor concentration.

[10] = serum alanine transaminase / aspartate transaminase (liver function) in treated mice; type: in vivo, mouse; conditions: treated mice vs vehicle
Procedure: Serum alanine transaminase or aspartate transaminase levels from mice treated with Compound D1 (ML400) or vehicle (mice shown in FIG. 10) were assessed using EnzyChrom Assay Kits from BioAssay Systems.

[11] = target: LYP-1 (lymphoid phosphatase, LYP) (Homo sapiens (Human), UniProt Q9Y2R2); assay: LYP-1 phosphatase selectivity dose response assay; type: biochemical
Source text: as §1, §2

[12] = serum creatinine (kidney function) in treated mice; type: in vivo, mouse; conditions: treated mice vs vehicle
Procedure: Serum creatinine levels from mice treated with Compound D1 (ML400) or vehicle (mice shown in FIG. 9) were assessed using the QuantiChrom Creatinine Assay Kit from BioAssay Systems.

[13] = male, C57BL/6, mouse, in vivo, iv, […]
[14] = mouse, in vivo, male C57BL/6 mice, IP, 9.69 mg/kg
[15] = mouse, in vivo, male C57BL/6 mice, PO, 29.6 mg/kg

T1 sequence (P24666 whole entry): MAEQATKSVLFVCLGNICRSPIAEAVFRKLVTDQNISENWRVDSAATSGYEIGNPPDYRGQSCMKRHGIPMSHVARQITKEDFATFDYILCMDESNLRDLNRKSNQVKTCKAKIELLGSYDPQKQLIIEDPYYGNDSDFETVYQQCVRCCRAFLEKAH
LYP-1 (lymphoid phosphatase, LYP), sequence (Q9Y2R2 whole entry, species assumed): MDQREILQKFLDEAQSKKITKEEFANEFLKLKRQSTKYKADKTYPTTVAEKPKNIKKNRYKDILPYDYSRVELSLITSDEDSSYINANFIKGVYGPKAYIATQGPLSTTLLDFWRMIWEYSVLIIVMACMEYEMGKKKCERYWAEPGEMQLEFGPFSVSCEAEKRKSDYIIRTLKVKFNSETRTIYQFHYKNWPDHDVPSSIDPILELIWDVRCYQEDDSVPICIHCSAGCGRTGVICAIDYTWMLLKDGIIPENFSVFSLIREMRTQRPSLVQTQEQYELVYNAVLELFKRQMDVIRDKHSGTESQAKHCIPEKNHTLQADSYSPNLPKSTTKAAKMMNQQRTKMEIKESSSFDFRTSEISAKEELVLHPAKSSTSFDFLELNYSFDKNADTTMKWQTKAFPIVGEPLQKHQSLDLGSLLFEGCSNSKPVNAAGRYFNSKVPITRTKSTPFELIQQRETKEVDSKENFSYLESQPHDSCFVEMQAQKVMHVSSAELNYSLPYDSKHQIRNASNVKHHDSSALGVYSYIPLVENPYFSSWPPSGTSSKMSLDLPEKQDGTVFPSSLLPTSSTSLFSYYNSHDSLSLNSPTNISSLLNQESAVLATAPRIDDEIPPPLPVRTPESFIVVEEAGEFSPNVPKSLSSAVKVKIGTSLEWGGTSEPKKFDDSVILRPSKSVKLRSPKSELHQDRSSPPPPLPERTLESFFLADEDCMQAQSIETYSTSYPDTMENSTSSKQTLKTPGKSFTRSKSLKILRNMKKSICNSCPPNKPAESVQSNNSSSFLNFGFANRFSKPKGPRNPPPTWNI
VHR-1 (VH1-related phosphatase, VHR), sequence (P51452 whole entry, canonical isoform): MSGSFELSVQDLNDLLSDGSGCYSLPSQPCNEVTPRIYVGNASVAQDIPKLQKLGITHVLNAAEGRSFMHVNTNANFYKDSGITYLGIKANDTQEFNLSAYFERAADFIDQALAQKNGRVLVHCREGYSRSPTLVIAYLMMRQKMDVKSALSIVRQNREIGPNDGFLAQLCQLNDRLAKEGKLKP

COc1ccc(-c2cc(NCCCN3CCCCC3)c3ccccc3n2)cc1 [Compound D1, 2-(4-methoxyphenyl)-N-(3-(piperidin-1-yl)propyl)quinolin-4-amine]
3T3-L1 adipogenesis [1]: completely abolished
IC50 [2]: 3.52 ± 0.33 µM
Hepatic Microsome Stability % Remaining @ 1 hr ([3]; Mouse microsomes, 1 hr): 48.75%
microsomal stability ([3]; mouse liver microsomes after 1 hour): moderate stability
enterohepatic circulation ([4]; male C57BL/6 mice): observed
Cl (mL/min/kg) ([4]; male C57BL/6 mice, IV, […]): Low clearance
Vdss (L/kg) ([4]; male C57BL/6 mice, IV, […]): large volume of distribution
clearance [4, 13]: 1.55 L/h/kg
half-life [4, 13]: 39.6 h
Vd ([4]; male, C57BL/6, mouse, in vivo, iv, […], read-out: Vdss): 83.1 L/kg
AUC(0-inf) [4, 14]: 4.52 µg·h/mL
Cmax [4, 14]: 0.365 µg/mL
Tmax [4, 14]: 0.33 h
half-life [4, 14]: 32.5 h
AUC(0-inf) [4, 15]: 6.38 µg·h/mL
Cmax [4, 15]: 3.21 µg/mL
Tmax [4, 15]: 3.33 h
half-life [4, 15]: 29.2 h
Fold-Selective ([5]; LMPTP over VHR-1): >60-fold
IC50 ([5]; n = 2, AID743310, read-out: Anti-target VHR-1 IC50): > 80 µM
glucose tolerance (IPGTT) [6]: Improves Glucose Tolerance
Plasma Stability % Remaining @ 3 hrs ([7]; Mouse plasma, 3 hrs): 68.97%
plasma stability ([7]; mouse plasma): good stability
solubility in PBS ([8]; PBS, versus aqueous buffer): comparable
solubility ([8]; aqueous buffer, pH 5.0): > 0.112 mg/mL
solubility ([8]; pH 6.2, aqueous buffer): > 0.112 mg/mL
solubility ([8]; pH 7.4, aqueous buffer): > 0.112 mg/mL
concentration achieved in aqueous buffer ([8]; pH range of 5.0-7.4): 18-20 ×IC50
mechanism of action of LMPTP inhibition ([9]; 20 nM LMPTP, OMFP substrate, 37° C., pH 6.0): uncompetitive
effect on Vmax and KM ([9]; increasing inhibitor concentration): lowering both Vmax and KM
liver function (serum alanine transaminase or aspartate transaminase) [10]: does not Affect Liver Function
Fold-Selective ([11]; LMPTP over LYP-1): >60-fold
IC50 ([11]; n = 2, AID743309, read-out: Anti-target LYP-1 IC50): > 80 µM
kidney function (serum creatinine) [12]: does not Affect Kidney Function
